Source: patent publication US20150273025A1, “APYRASE TREATMENTS” (THE REGENTS OF THE UNIVERSITY OF MICHIGAN, priority 2012, published 2015)
Where a SMILES comes first, the peptide text is derived from it. Bridges are numbered along the chain shown (N, C = ends). [ ]: non-standard residue; d: D form. The star is where a group is joined. Heptanoyl(5-Me) = CCC(C)CCCC(=O)*; Dab = NCC[C@H](N)C(=O)O

Assays:
[1] = test system: Burkholderia ambifaria AU5203; test: Viable cell count (CFU) with colistin and apyrase; details: apyrase 2 U/ml; colistin at less than 20 μg/ml
Description: Burkholderia ambifaria AU5203 was grown in the presence of combinations of 0 and 2 U/ml of apyrase and approximately 0 to 20 μg/ml of colistin. After incubation, the numbers of viable cells were determined by counting the colony forming units (CFU) on the plate (data provided as CFU/ml).

P. aeruginosa AU0584 = test: Viable cell count (CFU) with colistin and apyrase; details: apyrase 2 U/ml; colistin at less than 10 μg/ml
Description: P. aeruginosa AU0584 was grown in the presence of combinations of 0 and 2 U/ml of apyrase and approximately 0 to 20 μg/ml of colistin. After incubation, the numbers of viable cells were determined by counting the colony forming units (CFU) on the plate (data provided as CFU/ml).

[2] = test system: Burkholderia dolosa AU0589; test: Viable cell count (CFU) with colistin and apyrase; details: apyrase 2 U/ml; colistin at less than 20 μg/ml
Description: Burkholderia dolosa AU0589 was grown in the presence of combinations of 0 and 2 U/ml of apyrase and approximately 0 to 20 μg/ml of colistin. After incubation, the numbers of viable cells were determined by counting the colony forming units (CFU) on the plate (data provided as CFU/ml).

[3] = test system: Burkholderia cepacia GIIIb AU0055; test: Viable cell count (CFU) with colistin and apyrase; details: apyrase 2 U/ml; colistin at less than 10 μg/ml
Description: Burkholderia cepacia GIIIb AU0055 was grown in the presence of combinations of 0 and 2 U/ml of apyrase and approximately 0 to 20 μg/ml of colistin. After incubation, the numbers of viable cells were determined by counting the colony forming units (CFU) on the plate (data provided as CFU/ml).

[4] = test system: Burkholderia multivorans AU0801; test: Viable cell count (CFU) with colistin and apyrase; details: apyrase 2 U/ml; colistin at less than 10 μg/ml
Description: Burkholderia multivorans AU0801 was grown in the presence of combinations of 0 and 2 U/ml of apyrase and approximately 0 to 20 μg/ml of colistin. After incubation, the numbers of viable cells were determined by counting the colony forming units (CFU) on the plate (data provided as CFU/ml).

B. multivorans AU0801 = test: MIC from dose-kill curves, colistin alone or with apyrase; format: cell-based; details: 4 hours at 37° C., apyrase 2 U/ml in the combination
Description: (§1) Data were collected from systematic tests to investigate bacterial killing with colistin and apyrase combinations against ESKAPE bacteria in vitro. […] Dose-kill curves for 22 strains (colistin sensitive or resistant ˜10^6 CFU/ml) were generated after exposure to colistin at different concentrations by itself or in combination with apyrase (2 U/ml) for 4 hours at 37° C. Data were obtained from three independent experiments. […] The MIC of colistin and apyrase combinations was generally 2- to 8-fold lower in comparison to the MIC for colistin alone (FIG. 31 and Table 2). For Gram-positive strains, the MICs results obtained with colistin alone and with the combination of colistin and apyrase were very similar.

P. aeruginosa AU7443 = test: as above; format: cell-based; details: 4 hours at 37° C., apyrase 2 U/ml in the combination
Description: as §1

E. coli K-12 = test: as above; format: cell-based; details: 4 hours at 37° C., apyrase 2 U/ml in the combination
Description: as §1

P. aeruginosa AU1292 = test: as above; format: cell-based; details: 4 hours at 37° C., apyrase 2 U/ml in the combination
Description: as §1

S. aureus ATCC 25923 = test: as above; format: cell-based; details: 4 hours at 37° C., apyrase 2 U/ml in the combination
Description: as §1

A. baumannii DMC1 [5] = test: as above; format: cell-based; details: 4 hours at 37° C., apyrase 2 U/ml in the combination
Description: as §1

A. baumannii ATCC 19606 = test: as above; format: cell-based; details: 4 hours at 37° C., apyrase 2 U/ml in the combination
Description: as §1

A. baumannii AC121 = test: as above; format: cell-based; details: 4 hours at 37° C., apyrase 2 U/ml in the combination
Description: as §1

P. aeruginosa ATCC 27853 = test: as above; format: cell-based; details: 4 hours at 37° C., apyrase 2 U/ml in the combination
Description: as §1

P. aeruginosa PAO300 = test: as above; format: cell-based; details: 4 hours at 37° C., apyrase 2 U/ml in the combination
Description: as §1

A. baumannii AC285 = test: as above; format: cell-based; details: 4 hours at 37° C., apyrase 2 U/ml in the combination
Description: as §1

K. pneumonia AD = test: as above; format: cell-based; details: 4 hours at 37° C., apyrase 2 U/ml in the combination
Description: as §1

A. baumannii VBA9 = test: as above; format: cell-based; details: 4 hours at 37° C., apyrase 2 U/ml in the combination
Description: as §1

[6] = test system: Burkholderia cepacia GIIIb AU0062; test: Viable cell count (CFU) with colistin and apyrase; details: apyrase 2 U/ml; colistin at less than 20 μg/ml
Description: Burkholderia cepacia GIIIb AU0062 was grown in the presence of combinations of 0 and 2 U/ml of apyrase and approximately 0 to 20 μg/ml of colistin. After incubation, the numbers of viable cells were determined by counting the colony forming units (CFU) on the plate (data provided as CFU/ml).

[7] = test system: P. aeruginosa strain AU8104; test: Viable cell count (CFU) with colistin and apyrase; details: apyrase 2 U/ml; colistin at less than 10 μg/ml
Description: P. aeruginosa strain AU8104 was grown in the presence of combinations of 0 and 2 U/ml of apyrase and approximately 0 to 20 μg/ml of colistin. After incubation, the numbers of viable cells were determined by counting the colony forming units (CFU) on the plate (data provided as CFU/ml).

[8] = test system: A. baumannii strain AC121; test: Viable cell count (CFU) with colistin and apyrase; details: apyrase 2 U/ml; colistin at less than 20 μg/ml; colistin-resistant strain
Description: Approximately 10^5 to 10^6 CFU/ml of the colistin-resistant A. baumannii strain AC121 was grown in the presence of combinations of 0 and 2 U/ml of apyrase and approximately 0 to 20 μg/ml of colistin. After incubation, the numbers of viable cells were determined by counting the colony forming units (CFU) on the plate (data provided as CFU/ml).

A. baumannii strain DMC1 = test: Viable cell count (CFU) with colistin and apyrase; details: apyrase 1 and 2 U/ml; colistin 4 to 32 μg/ml; colistin alone at the same concentrations
Description: Approximately 10^6 CFU/ml of A. baumannii strain DMC1 was grown on solid medium culture plates in the presence of combinations of 0, 1, and 2 U/ml of apyrase and 0, 4, 8, 16, and 32 μg/ml of colistin. After incubation, the numbers of viable cells were determined by counting the colony forming units (CFU) on the plate (data provided as CFU/ml).

A. baumannii ATCC DMC1 = test: Mouse burn wound infection model, treatment 24 hours after inoculation; details: treated 24 hours after inoculation, sampled 48 hours after the burn
Description: After a burn, A. baumannii ATCC DMC1 was inoculated on skin. After 24 hours, the wounds were treated with apyrase alone, colistin alone, or apyrase and colistin in combination. Skin samples were collected after another 24 hours and the CFU/g skin of A. baumannii ATCC DMC1 was determined.

[9] = test system: Burkholderia cepacia AU1114; test: Viable cell count (CFU) with colistin and apyrase; details: apyrase 2 U/ml; colistin at less than 20 μg/ml
Description: Burkholderia cepacia AU1114 was grown in the presence of combinations of 0 and 2 U/ml of apyrase and approximately 0 to 20 μg/ml of colistin. After incubation, the numbers of viable cells were determined by counting the colony forming units (CFU) on the plate (data provided as CFU/ml).

[10] = test system: A. baumannii strain ATCC 19606; test: Viable cell count (CFU) with colistin and apyrase; details: apyrase 1 and 2 U/ml; colistin 0.25 to 2 μg/ml; colistin alone at the same concentrations
Description: Approximately 10^6 CFU/ml of A. baumannii strain ATCC 19606 was grown on solid medium culture plates in the presence of combinations of 0, 1, and 2 U/ml of apyrase and 0, 0.25, 0.5, 1, and 2 μg/ml of colistin. After incubation, the numbers of viable cells were determined by counting the colony forming units (CFU) on the plate (data provided as CFU/ml). […] In these Examples, the colistin is colistin sulfate salt, catalog number C4461 from Sigma-Aldrich (St. Louis, Mo.) and the apyrase is catalog number M0393L from New England BioLabs Inc. (Ipswich, Mass.).

[11] = test system: Burkholderia cepacia GIIIa AU0019; test: Viable cell count (CFU) with colistin and apyrase; format: cell-based; details: apyrase 2 U/ml; colistin at less than 10 μg/ml
[12] = test system: P. aeruginosa strain AU1292; test: Viable cell count (CFU) with colistin and apyrase; details: apyrase 2 U/ml; colistin at less than 20 μg/ml
Description: P. aeruginosa strain AU1292 was grown in the presence of combinations of 0 and 2 U/ml of apyrase and approximately 0 to 20 μg/ml of colistin. After incubation, the numbers of viable cells were determined by counting the colony forming units (CFU) on the plate (data provided as CFU/ml).

[13] = test system: P. aeruginosa strain AU7443, mucoid; test: Viable cell count (CFU) with colistin and apyrase; details: apyrase 2 U/ml; colistin at less than 20 μg/ml
Description: After incubation, the numbers of viable cells were determined by counting the colony forming units (CFU) on the plate (data provided as CFU/ml).

[14] = test system: Burkholderia vietnamiensis AU10214; test: Viable cell count (CFU) with colistin and apyrase; details: apyrase 2 U/ml; colistin at less than 20 μg/ml
Description: Burkholderia vietnamiensis AU10214 was grown in the presence of combinations of 0 and 2 U/ml of apyrase and approximately 0 to 20 μg/ml of colistin. After incubation, the numbers of viable cells were determined by counting the colony forming units (CFU) on the plate (data provided as CFU/ml).

A. baumannii DMC1 [15] = test: Mouse wound model, viable bacteria at burn sites 24 hours after burn; details: C57BL/6 mice, colistin 4 μg/ml
Description: In addition, experiments were performed to test the synergistic killing effects of colistin and apyrase in vivo. An established mouse wound model was used for this test.
Female pathogen-free C57BL/6 mice (Harlan, Indianapolis, Ind.), 12 weeks old, weighing ˜20-23 grams were used in all experiments. The skin over the lumbrosacral and back region was clipped using a 35-W model 5-55 E electrical clipper (Oyster-Golden A-S, Head no. 80, blade size 40) by using the method described by Ipaktchi et al. with slight modification. Two hundred microliters of a 0.9% saline suspension of A. baumannii DMC1 (1×10^6 cells/ml), which is a highly colistin resistant clinical strain, was used for wound infection experiments. Viable bacterial numbers were determined 24 hours after burn. The Student t-test was used for statistical analysis.
Experiments were carried out in four groups: (1) a control group (n=6), which contained neither apyrase nor colistin; (2) apyrase group (n=9), which contained apyrase (1 U/ml); (3) colistin group (n=9), which contained colistin (4 μg/ml); and (4) apyrase and colistin group (n=9), which was treated with the combination of apyrase (1 U/ml) and colistin (4 μg/ml). The treatment was applied immediately after inoculation. After 24 hours, the mice were given lethal IP injections of pentobarbital (150 mg/kg) and skin samples were collected using a scalpel and scissors.

BMP-2 signaling = BMP-2 signaling of MSCs after burn injury, burn mouse model; format: in vivo; details: apyrase at the burn site
Excerpt: (§2) At the cellular level, research has shown that aberrant expression of BMPs in adipose-derived MSCs near the wound site stimulates osteogenic differentiation of multipotent cells. […] Alizarin red is used in to determine, quantitatively by colorimetry, the presence of calcific deposition by cells of an osteogenic lineage. As such, it is a marker of matrix mineralization, a crucial step towards the formation of calcified extracellular matrix associated with true bone. Thus, alizarin red staining indicates differentiation of cells to bone lineages.
(§3) Consequently, it is contemplated that decreasing inflammation at the burn site with apyrase—thus decreasing ATP concentrations, which leads to decreased MSC BMP-2 signaling and decreased osteogenic differentiation—alleviates heterotopic ossification at wound sites.

bacterial culture = test: Growth of a bacterial culture (optical density at 600 nm) with apyrase; format: cell-based; details: presence vs absence of apyrase over 15 to 20 hours
MSCs = test: Osteogenic differentiation of MSCs after burn injury (alizarin red), burn mouse model; format: in vivo
Excerpt: as §2, §3

[16] = Killing efficiency of antibacterial agents with apyrase (summary of the examples); format: cell-based; details: in some instances
Description: Embodiments of the technology relate to the surprising discovery that apyrase and antimicrobial agents act together synergistically. […] As such, the technology provides therapies in which antimicrobial agents are administered in lower doses (e.g., 0.01%, 0.1%, 1%, 5%, 10%, 20%, 50%, 75%, 90%, etc. of the standard recommended dosage) than in conventional technologies. Importantly, this reduces toxic side effects, if present, of antimicrobial agents in subjects and helps to prevent drug resistance of microbes. In addition, the technology provided herein comprising combined use of apyrase and antimicrobial agents provides the only treatment to kill some multiply-resistant strains of pathogens.

CCC(C)CCCC(=O)N[C@@H](CCN)C(=O)N[C@H](C(=O)N[C@@H](CCN)C(=O)N[C@H]1CCNC(=O)[C@H]([C@@H](C)O)NC(=O)[C@H](CCN)NC(=O)[C@H](CCN)NC(=O)[C@H](CC(C)C)NC(=O)[C@@H](CC(C)C)NC(=O)[C@H](CCN)NC1=O)[C@@H](C)O (stereo partly drawn) [Colistin, colistin] ({Heptanoyl(5-Me)}-[Dab]T[Dab][Dab][Dab][dL]L[Dab][Dab]T; lactam 4-C)
viable cells detected [1]: 10^5 to 10^6 CFU/ml
viable cells detected (P. aeruginosa AU0584): 10^3 to 10^4 CFU/ml
viable cells detected [2]: 10^6 to 10^7 CFU/ml
viable cells detected [3]: 10^4 to 10^5 CFU/ml
viable cells detected [4]: 10^5 to 10^6 CFU/ml
MIC (B. multivorans AU0801): > 16 µM
MIC (P. aeruginosa AU7443): > 16 µM
MIC (E. coli K-12): 2 µM
MIC (P. aeruginosa AU1292): > 16 µM
MIC (S. aureus ATCC 25923): > 32 µM
MIC (A. baumannii DMC1 [5]): > 32 µM
MIC (A. baumannii ATCC 19606): 4 µM
MIC (A. baumannii AC121): > 32 µM
MIC (P. aeruginosa ATCC 27853): 1 µM
MIC (P. aeruginosa PAO300): 2 µM
MIC (A. baumannii AC285): > 32 µM
MIC (K. pneumonia AD): 16 µM
MIC (A. baumannii VBA9): > 32 µM
viable cells detected [6]: 10^4 to 10^5 CFU/ml
viable cells detected [7]: 10^5 to 10^6 CFU/ml
viable cells detected [8]: 10^7 to 10^8 CFU/ml
viable cell count (A. baumannii strain DMC1): approximately 10^7 CFU/ml
A. baumannii detected on skin (A. baumannii ATCC DMC1): approximately 10^8 CFU/g of skin
viable cells detected [9]: 10^5 to 10^6 CFU/ml
viable cell count [10]: approximately 10^5 CFU/ml
viable cells detected [11]: 10^5 to 10^6 CFU/ml
viable cells detected [12]: 10^4 to 10^5 CFU/ml
viable cells detected [13]: 10^4 to 10^5 CFU/ml
viable cells detected [14]: 10^5 to 10^6 CFU/ml
viable bacteria number recovered from burn sites, compared with the control group (A. baumannii DMC1 [15]): no significant difference

apyrase
level of BMP-2 signaling of the MSCs (BMP-2 signaling): decreased
A. baumannii detected on skin (A. baumannii ATCC DMC1): approximately 10^8 CFU/g of skin
growth of a bacterial culture (optical density at 600 nm) (bacterial culture): does not affect bacterial growth
osteogenic differentiation of MSCs (alizarin red) (MSCs; after burn injury and apyrase treatment): significant decrease
osteogenic capacity of the MSCs (MSCs; apyrase at the burn site): decreased
increase of the killing efficiency of antibacterial agents [16]: 1000 times
